Reference: ChEMBL document CHEMBL1136058, “4-Anilino-3-cyanobenzo[g]quinolines as kinase inhibitors” (Bioorg Med Chem Lett, 2002)

Key:
[1] = biological target: T1, Proto-oncogene tyrosine-protein kinase Src (Homo sapiens, UniProt P12931)
SW-620 = assay: Inhibition of SW620 cell proliferation; settings: Homo sapiens
[2] = biological target: Epidermal growth factor receptor (Homo sapiens, UniProt P00533); assay: Inhibition of epidermal growth factor receptor (EGFR)
[3] = biological target: T1, Proto-oncogene tyrosine-protein kinase Src; assay: Inhibition of Src protein tyrosine kinase at 0.1 uM
[4] = biological target: Dual specificity mitogen-activated protein kinase kinase 1 (Homo sapiens, UniProt Q02750); assay: Inhibition of Dual specificity mitogen-activated protein kinase kinase (MEK-1)
Chain of Dual specificity mitogen-activated protein kinase kinase 1 (Q02750 whole entry): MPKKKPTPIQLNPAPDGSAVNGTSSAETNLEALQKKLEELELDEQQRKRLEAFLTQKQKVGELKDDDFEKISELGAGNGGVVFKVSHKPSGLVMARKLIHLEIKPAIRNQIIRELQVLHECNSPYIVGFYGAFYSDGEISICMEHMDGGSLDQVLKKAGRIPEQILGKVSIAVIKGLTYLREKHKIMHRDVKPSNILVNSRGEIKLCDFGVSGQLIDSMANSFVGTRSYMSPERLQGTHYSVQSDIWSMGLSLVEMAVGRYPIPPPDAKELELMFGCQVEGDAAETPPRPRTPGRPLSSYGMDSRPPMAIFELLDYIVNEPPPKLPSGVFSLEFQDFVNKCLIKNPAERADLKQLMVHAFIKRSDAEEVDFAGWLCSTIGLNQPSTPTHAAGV

LoVo = assay: Inhibition of LOVO cell proliferation; settings: Homo sapiens
[5] = biological target: T1, Proto-oncogene tyrosine-protein kinase Src; assay: Inhibition of Src protein tyrosine kinase at 0.01 uM

T1 sequence (P12931 2-536 limits assumed): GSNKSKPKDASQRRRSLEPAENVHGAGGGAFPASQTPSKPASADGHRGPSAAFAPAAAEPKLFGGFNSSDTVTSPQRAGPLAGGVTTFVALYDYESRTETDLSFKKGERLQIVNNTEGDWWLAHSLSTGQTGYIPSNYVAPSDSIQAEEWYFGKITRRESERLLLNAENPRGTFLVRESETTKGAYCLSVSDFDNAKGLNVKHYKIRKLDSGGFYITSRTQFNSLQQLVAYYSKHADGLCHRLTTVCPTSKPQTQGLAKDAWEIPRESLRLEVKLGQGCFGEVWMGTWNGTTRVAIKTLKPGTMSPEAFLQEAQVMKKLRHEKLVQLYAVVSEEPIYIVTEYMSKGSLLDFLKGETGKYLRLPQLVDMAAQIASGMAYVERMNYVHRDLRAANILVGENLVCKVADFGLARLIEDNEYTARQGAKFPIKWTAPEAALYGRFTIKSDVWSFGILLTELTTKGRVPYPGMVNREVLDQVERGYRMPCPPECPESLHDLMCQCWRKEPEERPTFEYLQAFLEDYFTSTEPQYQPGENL
Chain of Epidermal growth factor receptor (P00533 whole entry): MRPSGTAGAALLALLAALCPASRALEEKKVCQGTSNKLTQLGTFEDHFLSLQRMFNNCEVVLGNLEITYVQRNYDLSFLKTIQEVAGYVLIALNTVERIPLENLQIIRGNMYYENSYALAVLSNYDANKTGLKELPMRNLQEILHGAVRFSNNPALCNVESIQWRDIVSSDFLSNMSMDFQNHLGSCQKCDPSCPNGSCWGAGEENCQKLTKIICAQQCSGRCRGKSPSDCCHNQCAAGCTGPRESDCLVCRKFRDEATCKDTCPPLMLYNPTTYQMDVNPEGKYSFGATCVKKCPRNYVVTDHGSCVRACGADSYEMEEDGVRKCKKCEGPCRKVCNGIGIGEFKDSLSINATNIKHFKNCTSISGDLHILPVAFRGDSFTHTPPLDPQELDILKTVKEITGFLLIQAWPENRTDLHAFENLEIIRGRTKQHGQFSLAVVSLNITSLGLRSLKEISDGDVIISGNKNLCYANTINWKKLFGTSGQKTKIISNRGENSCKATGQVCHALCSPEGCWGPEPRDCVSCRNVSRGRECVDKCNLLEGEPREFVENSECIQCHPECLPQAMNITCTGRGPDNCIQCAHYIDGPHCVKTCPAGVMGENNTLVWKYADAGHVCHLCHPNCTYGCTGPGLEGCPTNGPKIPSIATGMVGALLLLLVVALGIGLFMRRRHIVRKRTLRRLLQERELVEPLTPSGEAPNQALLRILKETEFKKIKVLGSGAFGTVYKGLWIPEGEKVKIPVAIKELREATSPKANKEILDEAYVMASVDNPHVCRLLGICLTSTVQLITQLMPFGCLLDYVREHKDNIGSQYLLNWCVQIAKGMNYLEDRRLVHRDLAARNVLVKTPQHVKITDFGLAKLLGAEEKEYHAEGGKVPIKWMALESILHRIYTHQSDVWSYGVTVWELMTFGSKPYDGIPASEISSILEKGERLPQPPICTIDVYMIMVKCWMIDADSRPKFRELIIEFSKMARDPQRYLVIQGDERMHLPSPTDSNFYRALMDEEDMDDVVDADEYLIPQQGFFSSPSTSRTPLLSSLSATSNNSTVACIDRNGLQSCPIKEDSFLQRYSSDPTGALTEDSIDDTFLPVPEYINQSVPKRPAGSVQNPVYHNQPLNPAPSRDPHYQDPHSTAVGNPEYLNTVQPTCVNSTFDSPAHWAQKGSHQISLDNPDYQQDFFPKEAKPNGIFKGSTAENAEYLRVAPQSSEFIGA

**Q.** For `COc1cc2ncc(C#N)c(Nc3ccc(Cl)cc3Cl)c2cc1OC`, which IC50 [1] is on record?
**A.** The IC50 was 0.038 µM.

**Q.** `COc1cc2cc3ncc(C#N)c(Nc4ccc(F)c(Cl)c4)c3cc2cc1OC` was tested. Which IC50 (SW-620) did it give?
**A.** The IC50 was 1.99 µM.

**Q.** And the IC50 [2]?
**A.** Its IC50 is 18 µM.

**Q.** How did the inhibition [3] turn out when `COc1ccc2cc3c(Nc4ccc(Cl)cc4Cl)c(C#N)cnc3cc2c1` was run?
**A.** Its inhibition is 30%.

**Q.** Which IC50 [4] does the source give for `COc1cc2cc3ncc(C#N)c(Nc4ccc(Oc5ccccc5)cc4)c3cc2cc1OC` here?
**A.** Its IC50 is 0.01 µM.

**Q.** And the IC50 (LoVo)?
**A.** Its IC50 is 0.67 µM.

**Q.** For `COc1ccc2cc3ncc(C#N)c(Nc4ccc(Cl)cc4Cl)c3cc2c1`, which inhibition [3] is on record?
**A.** The inhibition was 30%.

**Q.** For `N#Cc1cnc2cc3cc(O)c(O)cc3cc2c1Nc1ccc(Cl)cc1Cl`, which inhibition [5] is on record?
**A.** The inhibition was 10%.
